Results on one molecule are retold here after patent publication US6890537B2, “Antimicrobial theta defensins and methods of using same” (The Regents of the University of California, priority 1999, dated 2005).

Positions of bridges follow the written chain, without caps; N, C: chain ends. Residues, ends and D or L forms follow the SMILES beside them.

One test relates to L. monocytogenes. As to the kind of experiment: Microbicidal suspension assay (colony counts). The class given is cell-based, Listeria monocytogenes. The settings on record: 2 hr, 37° C., 10 mM PIPES, pH 7.4, 5 mM glucose; FIG. 9B. As to the method:
(§1) Killing was quantified by colony counts. Panels B-D show incubation of the indicated organisms with RTD-1 peptide: Listeria monocytogenes and Staphylococcus aureus (Panel B); Salmonella typhimurium and Escherichia coli (Panel C); and Cryptococcus neoformans and Candida albicans (Panel D). The limit of detection (1 colony per plate) was equal to 1×10^3 colony forming units in the incubation mixture.
(§2) Additional antimicrobial assays were conducted on other microbial organisms. […] In FIG. 9A, S. aureus 502a was incubated with increasing concentrations of natural or synthetic peptide for 30 min at 37° C. in 10 mM PIPES, pH 7.4, containing 5 mM glucose. Killing was quantified by colony counts. […] The limit of detection (1 colony per plate) was equal to 1×10^3 colony forming units in the incubation mixture.

The test system of another test is E. coli ML 35. As to the kind of experiment: Microbicidal suspension assay (colony counts). Type of test: cell-based, Escherichia coli. As to the method:
as §1, §2
(§3) An acyclic version of theta defensin was also tested for antimicrobial activity. […] Killing activity was quantified by colony counts after 18 hrs.

Test [1] deals with Staphylococcus aureus 502a. As to the kind of experiment: Agar diffusion assay. Type of test: cell-based. The method, then:
(§4) The purified chromatographic peaks were screened for antibacterial activity against Escherichia coli ML35 and Staphylococcus aureus 502a. Briefly, antibacterial activity was screened with an agar diffusion assay using lyophilized samples of HPLC fractions dissolved in 5 μl of 0.01% acetic acid as described by Lehrer et al., J. Immunol. Methods 137:167-173 (1991)).
(§5) Agar diffusion assays and microbicidal suspension assays were used to examine the activity of theta defensin against Staphylococcus aureus 502A, Escherichia coli ML35, Listeria monocytogenes, and Cryptococcus neoformans.

In the next test the test system is Escherichia coli ML35. The experiment in a line: Agar diffusion assay. The class given is cell-based. The method, then:
as §4, §5

Test [2] deals with Listeria monocytogenes EGD. As to the kind of experiment: Agar diffusion assay. The class given is cell-based. The settings on record: 10, 30, 100 or 300 μg/ml; agar seeded with 1×10^6 colony forming units; FIG. 7.
Excerpt: as §5

Test [3] relates to Cryptococcus neoformans 271A. The experiment in a line: Agar diffusion assay. The class given is cell-based. The conditions noted are these: 10, 30, 100 or 300 μg/ml; agar seeded with 1×10^6 colony forming units; FIG. 7.
Excerpt: as §5

In another test the test system is C. neoformans. As to the kind of experiment: Microbicidal suspension assay (colony counts). Type of test: cell-based, Cryptococcus neoformans. The conditions noted are these: 2 hr, 37° C., 10 mM PIPES, pH 7.4, 5 mM glucose; FIG. 9D. The method, then:
as §1, §2

The test system of another test is S. typhimurium. The experiment in a line: Microbicidal suspension assay (colony counts). Type of test: cell-based, Salmonella typhimurium. The settings on record: 2 hr, 37° C., 10 mM PIPES, pH 7.4, 5 mM glucose; FIG. 9C. The method, then: as §1, §2
A further test deals with C. albicans. The experiment in a line: Microbicidal suspension assay (colony counts). The class given is cell-based, Candida albicans. The settings on record: 2 hr, 37° C., 10 mM PIPES, pH 7.4, 5 mM glucose; FIG. 9D. As to the method: as §1, §2
Test [4] relates to Staphylococcus aureus 502a. As to the kind of experiment: Microbicidal suspension assay (colony counts). Type of test: cell-based. As to the method:
S. aureus 502a was incubated with increasing concentrations of natural or synthetic theta defensin peptide. Killing was quantified by colony counts.
Killing was quantified by colony counts. […] The limit of detection (1 colony per plate) was equal to 1×10^3 colony forming units in the incubation mixture.
Killing activity was quantified by colony counts after 18 hrs.
Killing was quantified by colony counts.
as §2
It has been proposed that salt sensitivity of airway defensins underlies the susceptibility of cystic fibrosis patients to pulmonary infections.
as §3

Setting [5] is: 10, 30, 100 or 300 μg/ml, agar seeded with 1×10^6 colony forming units, FIG. 7.
The mark [6] stands for this setting: lyophilized HPLC fractions in 5 μl of 0.01% acetic acid, compared with other isolated leukocyte peptides.

Turning to `CC[C@H](C)[C@@H]1NC(=O)[C@@H]2CSSC[C@H](NC(=O)[C@H](CCCNC(=N)N)NC(=O)[C@@H]3CSSC[C@H](NC1=O)C(=O)N[C@@H]([C@@H](C)O)C(=O)N[C@@H](CCCNC(=N)N)C(=O)NCC(=O)N[C@@H](Cc1ccccc1)C(=O)N3)C(=O)N[C@@H](CC(C)C)C(=O)N[C@H]1CSSC[C@H](NC(=O)[C@H](C(C)C)NC(=O)CNC(=O)[C@H](CCCNC(=N)N)NC(=O)[C@H](CCCNC(=N)N)NC1=O)C(=O)N[C@@H](CCCNC(=N)N)C(=O)N2` [RTD-1] (cyclo(GFCRCLCRRGVCRCICTR); disulfide 3-16, 5-14, 7-12), the microbicidal activity entry was “killed” in the test on L. monocytogenes; “killed” in the test with E. coli ML 35 (2 hr, 37° C., 10 mM PIPES, pH 7.4, 5 mM glucose, FIG. 9C); “killed” in the test with C. neoformans; “killed” with S. typhimurium; “killed” in the test on C. albicans; “killed” in test [4] (37° C., 10 mM PIPES, pH 7.4, 5 mM glucose, FIG. 9). Further, the “activity of cyclic form relative to acyclic form” value (in the test on E. coli ML 35 (gram negative bacteria (E. coli)); in [4] (gram positive bacteria (Staphylococcus))) was “about three times more active” each time. The zone of inhibition result (in test [1] (setting [5]); in the test on Escherichia coli ML35 (setting [5]); in test [2]; in test [3]) was “dose dependent increase in the zone of inhibition” in each case. In addition, the “antibacterial activity (screen of purified chromatographic peaks)” value (in test [1] (setting [6]); with Escherichia coli ML35 (setting [6])) was “greatest activity of any of the peptides isolated” each time. Further, the “effect of NaCl on staphylocidal activity” value in test [4] (10 μg/ml peptide, 2 h incubation, NaCl concentrations as high as 150 mM, FIG. 9E) is reported as “little effect”. Besides, in test [4] (2 h at 37° C. in 10 mM PIPES, pH 7.4, FIG. 8), the “peptide concentration reducing colony counts to below the level of detection” value is not below 4 µg/mL.
